Experimental data from US6489119B1, “Analgesic screening method and composition” (priority 1996, dated 2002).

Key:
TTXi Na channels [1] = molecular target: TTXi Na channels (Rattus norvegicus, UniProt Q62968); test: Whole-cell electrophysiological assay of TTXi Na currents in capsaicin-sensitive DRG neurons; type: cell-based, Sprague-Dawley rat; settings: DRG neuron; 400 μM, depolarizing steps from holding potential −80 mV; read-out: block of TTXi Na current
Source text: (§1) . Using a voltage paradigm during which a pair of depolarizing steps to −10 mV are separated by a 4 ms repolarizing step, greater than 90% of TTXs Na currents remain inactivated (FIG. 2B, see below). FIGS. 2C and 2D present voltage families of the TTXi (rapidly recovering Na current) and TTXs (slowly recovering Na current), respectively, generated using this paired-pulse paradigm. TTXs currents (FIG. 2D) were generated by subtracting Na currents obtained following a prepulse to −10 mV from those obtained without a prepulse. The fraction of the total Na current carried by the fast-recovering, TTXi, Na channel varied from cell to cell (generally from 70-90% of Na current is carried by a TTXi conductance in capsaicin-sensitive DRGs). […].
(§2) FIG. 4 presents Na currents obtained before and after exposure of cells to solutions containing 50, 100, 200, 500 and 1000 μM SNX-483 in a capsaicin-sensitive DRG neuron (PAN). […] In the experiments presented in FIG. 4, the capsaicin-sensitive neuron was held at −55 mV and stepped twice to −10 mV at 10 second intervals. Similar results have been obtained in every capsaicin-sensitive PAN tested (n=7). Only about 7% of the TTXi Na current that was blocked by 400 μM SNX-483 recovered within 15 minutes of continuously exchanging the recording chamber with fresh extracellular solution. […]

TTXi Na channels [2] = test: as above; type: cell-based, Sprague-Dawley rat; settings: membrane potential −55 mV
Source text: as §1, §2

Kv1.2 K channel = molecular target: T1, Kv1.2 K channel (Homo sapiens, UniProt P16389); test: K currents of Shaker subfamily channels expressed in xenopus oocytes; type: cell-based; settings: concentrations up to 1 μM
T1 construct: expressed in transfected cells; host or cells: Xenopus oocytes
Procedure: (§3) In addition, SNX-483 was evaluated for the ability to inhibit members of the Shaker subfamily of voltage-dependent K channels expressed in xenopus oocytes. At concentrations up to 1 μM, SNX-483 had no effect on K currents mediated by Kv1.1, Kv1.2, Kv1.3 or Kv1.4 K channels.

Kv1.4 K channel = molecular target: T2, Kv1.4 K channel (Homo sapiens, UniProt P22459); test: as above; type: cell-based; settings: concentrations up to 1 μM
T2 construct: expressed in transfected cells; host or cells: Xenopus oocytes
Procedure: as §3

Kv1.3 K channel = molecular target: T3, Kv1.3 K channel (Homo sapiens, UniProt P22001); test: as above; type: cell-based; settings: concentrations up to 1 μM
T3 construct: expressed in transfected cells; host or cells: Xenopus oocytes
Procedure: as §3

Kv1.1 K channel = molecular target: T4, Kv1.1 K channel (Homo sapiens, UniProt Q09470); test: as above; type: cell-based; settings: concentrations up to 1 μM
T4 construct: expressed in transfected cells; host or cells: Xenopus oocytes
Procedure: as §3

N-type Ca channel = molecular target: T5, N-type Ca channel (Homo sapiens, UniProt Q00975); test: Fluorometric Ca flux in INDO1-loaded IMR32 cells; type: cell-based; settings: concentrations exceeding 300 AM (highest concentration tested)
T5 construct: endogenous in cells; host or cells: IMR32 cells
Procedure: (§4) In parallel experiments, SNX-483 was tested for its ability to block voltage-dependent calcium (Ca) and voltage-dependent potassium (K) channels. N- and L-type Ca channel-mediated Ca fluxes were measured fluorometrically using INDO1—loaded IMR32 and GH3 cells, respectively. At concentrations exceeding […] (the highest concentration tested), SNX-483 had no effect on either type of Ca flux.

L-type Ca channel = test: Fluorometric Ca flux in INDO1-loaded GH3 cells; type: cell-based; settings: concentrations exceeding 300 AM (highest concentration tested)
Procedure: as §4

TTXs Na channels = test: Whole-cell electrophysiological assay of TTXs Na currents in DRG neurons; type: cell-based, Sprague-Dawley rat
Source text: FIG. 7 illustrates that at a membrane potential of −55 mV, SNX-483 more potently blocks TTXi Na currents than TTXs Na currents. In experiments carried out in support of the present invention, DRGs containing predominantly TTXi Na currents and TTXs currents were superfused sequentially with increasing concentrations of SNX-483. […]
10-20 day old Sprague-Dawley rat pups were euthanized using CO2 or decapitation. Dorsal root ganglia were removed and placed in Dulbecco s Minimum Essential Medium supplemented with 10% (v/v) fetal bovine serum (DMEM). Ganglia were then cut into small pieces and transferred to DMEM containing 2 mg/ml collagenase and incubated for 30 minutes in a 37° C. incubator with 5% CO2 atmosphere. After 15 minutes incubation, the pieces were gently triturated by three passages through a glass capillary pulled to 0.2 mm i.d. The collagenase was then removed by three washes in 10 ml of DMEM. The final resuspension was into DMEM supplemented with 50 ng/ml NGF, 50 I.U./ml penicillin and […] streptomycin. Cells were then transferred onto glass coverslips coated with collagen and placed in a 37° C. incubator as above. […]
TTXs sodium currents can be measured in large DRG neurons or in other cells or cell lines lacking TTXi Na channels. […]

T2 sequence (P22459 whole entry): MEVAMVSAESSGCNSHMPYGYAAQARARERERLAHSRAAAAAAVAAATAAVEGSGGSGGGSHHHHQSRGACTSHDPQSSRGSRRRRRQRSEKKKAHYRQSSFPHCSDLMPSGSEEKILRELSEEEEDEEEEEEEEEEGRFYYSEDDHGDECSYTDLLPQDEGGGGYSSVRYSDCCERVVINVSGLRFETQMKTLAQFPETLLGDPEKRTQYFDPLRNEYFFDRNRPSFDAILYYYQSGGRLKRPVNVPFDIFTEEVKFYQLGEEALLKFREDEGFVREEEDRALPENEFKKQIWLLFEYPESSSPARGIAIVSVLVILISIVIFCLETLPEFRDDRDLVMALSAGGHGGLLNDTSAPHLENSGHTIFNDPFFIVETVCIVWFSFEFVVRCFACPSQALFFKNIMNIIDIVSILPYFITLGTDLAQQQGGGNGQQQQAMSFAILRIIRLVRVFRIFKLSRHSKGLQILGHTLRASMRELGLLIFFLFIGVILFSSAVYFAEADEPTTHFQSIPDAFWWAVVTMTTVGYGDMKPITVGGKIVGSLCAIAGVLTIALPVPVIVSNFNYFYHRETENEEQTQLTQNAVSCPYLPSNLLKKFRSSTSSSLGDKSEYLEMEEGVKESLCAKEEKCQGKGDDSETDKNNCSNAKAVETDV
T4 sequence (Q09470 whole entry): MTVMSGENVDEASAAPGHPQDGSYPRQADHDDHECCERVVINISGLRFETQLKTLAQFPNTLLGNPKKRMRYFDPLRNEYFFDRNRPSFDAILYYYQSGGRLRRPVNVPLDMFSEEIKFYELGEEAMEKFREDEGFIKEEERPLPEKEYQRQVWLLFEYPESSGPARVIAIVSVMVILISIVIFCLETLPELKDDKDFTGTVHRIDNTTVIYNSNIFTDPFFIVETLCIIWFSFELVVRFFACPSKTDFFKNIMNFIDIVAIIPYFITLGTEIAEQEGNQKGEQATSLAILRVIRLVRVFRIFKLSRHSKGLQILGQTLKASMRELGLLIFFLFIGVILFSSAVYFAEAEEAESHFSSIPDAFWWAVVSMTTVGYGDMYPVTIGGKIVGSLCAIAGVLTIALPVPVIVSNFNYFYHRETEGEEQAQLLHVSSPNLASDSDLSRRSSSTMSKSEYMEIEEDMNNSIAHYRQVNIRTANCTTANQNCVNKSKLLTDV
T5 sequence (Q00975 whole entry): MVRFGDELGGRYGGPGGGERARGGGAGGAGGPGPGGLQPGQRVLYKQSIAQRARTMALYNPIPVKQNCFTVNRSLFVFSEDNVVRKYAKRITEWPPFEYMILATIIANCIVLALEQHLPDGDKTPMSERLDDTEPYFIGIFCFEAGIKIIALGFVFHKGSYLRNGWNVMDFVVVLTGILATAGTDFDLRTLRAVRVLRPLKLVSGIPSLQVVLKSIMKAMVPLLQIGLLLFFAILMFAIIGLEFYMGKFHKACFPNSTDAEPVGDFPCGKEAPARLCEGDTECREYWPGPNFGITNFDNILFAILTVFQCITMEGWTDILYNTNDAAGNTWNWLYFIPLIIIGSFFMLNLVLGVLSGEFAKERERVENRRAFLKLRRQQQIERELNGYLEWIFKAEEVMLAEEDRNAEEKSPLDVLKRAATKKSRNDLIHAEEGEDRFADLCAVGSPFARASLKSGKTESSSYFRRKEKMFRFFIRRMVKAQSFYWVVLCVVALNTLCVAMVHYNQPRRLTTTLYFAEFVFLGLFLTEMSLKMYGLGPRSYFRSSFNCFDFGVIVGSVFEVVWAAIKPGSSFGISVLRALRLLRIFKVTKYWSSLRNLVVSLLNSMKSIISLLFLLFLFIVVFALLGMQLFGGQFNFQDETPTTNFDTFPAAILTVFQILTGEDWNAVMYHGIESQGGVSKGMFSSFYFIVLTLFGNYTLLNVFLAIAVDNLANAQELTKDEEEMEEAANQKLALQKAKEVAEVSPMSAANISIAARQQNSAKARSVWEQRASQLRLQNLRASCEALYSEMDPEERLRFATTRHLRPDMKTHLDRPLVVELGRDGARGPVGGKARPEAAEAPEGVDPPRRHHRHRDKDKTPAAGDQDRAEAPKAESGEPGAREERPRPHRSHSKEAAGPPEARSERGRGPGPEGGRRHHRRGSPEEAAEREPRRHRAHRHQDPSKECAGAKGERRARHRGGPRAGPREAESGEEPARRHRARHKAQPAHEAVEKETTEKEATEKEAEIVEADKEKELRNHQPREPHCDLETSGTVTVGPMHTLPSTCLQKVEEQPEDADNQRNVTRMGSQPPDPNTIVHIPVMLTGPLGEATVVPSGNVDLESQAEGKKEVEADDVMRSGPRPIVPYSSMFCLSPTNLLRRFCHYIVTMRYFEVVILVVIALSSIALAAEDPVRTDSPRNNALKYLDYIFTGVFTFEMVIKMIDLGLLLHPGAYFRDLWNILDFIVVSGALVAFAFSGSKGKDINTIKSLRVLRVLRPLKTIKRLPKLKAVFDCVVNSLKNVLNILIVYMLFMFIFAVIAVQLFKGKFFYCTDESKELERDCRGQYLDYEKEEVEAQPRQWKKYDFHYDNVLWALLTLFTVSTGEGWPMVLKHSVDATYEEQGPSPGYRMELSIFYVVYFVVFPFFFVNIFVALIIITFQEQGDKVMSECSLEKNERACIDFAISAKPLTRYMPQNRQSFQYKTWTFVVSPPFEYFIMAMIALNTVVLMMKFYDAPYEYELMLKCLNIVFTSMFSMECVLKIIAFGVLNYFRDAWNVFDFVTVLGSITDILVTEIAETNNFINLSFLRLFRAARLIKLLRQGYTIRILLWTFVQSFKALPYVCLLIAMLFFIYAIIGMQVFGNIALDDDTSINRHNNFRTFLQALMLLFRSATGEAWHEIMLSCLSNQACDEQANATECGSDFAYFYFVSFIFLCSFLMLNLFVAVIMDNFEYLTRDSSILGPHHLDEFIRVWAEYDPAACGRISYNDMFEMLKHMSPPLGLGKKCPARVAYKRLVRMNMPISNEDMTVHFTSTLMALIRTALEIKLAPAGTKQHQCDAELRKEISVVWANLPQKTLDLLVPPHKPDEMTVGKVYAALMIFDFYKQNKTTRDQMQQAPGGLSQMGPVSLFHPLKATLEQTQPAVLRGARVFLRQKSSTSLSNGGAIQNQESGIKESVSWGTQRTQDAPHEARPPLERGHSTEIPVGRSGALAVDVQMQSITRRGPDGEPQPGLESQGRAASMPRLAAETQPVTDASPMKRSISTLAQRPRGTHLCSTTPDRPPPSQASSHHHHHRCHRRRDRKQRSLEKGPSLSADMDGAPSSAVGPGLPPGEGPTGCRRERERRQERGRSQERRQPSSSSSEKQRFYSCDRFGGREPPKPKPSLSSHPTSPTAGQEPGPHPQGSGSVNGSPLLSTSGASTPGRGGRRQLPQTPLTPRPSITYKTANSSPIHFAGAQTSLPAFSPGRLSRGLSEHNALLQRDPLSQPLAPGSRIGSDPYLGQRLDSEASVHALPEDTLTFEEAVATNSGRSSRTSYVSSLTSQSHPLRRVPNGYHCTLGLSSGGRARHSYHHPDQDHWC
T5 sequence (P54289 957-1103, further chain): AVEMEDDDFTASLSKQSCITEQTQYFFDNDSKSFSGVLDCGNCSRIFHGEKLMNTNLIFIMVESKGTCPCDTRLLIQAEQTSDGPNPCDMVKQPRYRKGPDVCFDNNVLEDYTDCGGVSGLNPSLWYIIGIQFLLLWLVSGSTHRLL
T5 sequence (P54284 whole entry, further chain): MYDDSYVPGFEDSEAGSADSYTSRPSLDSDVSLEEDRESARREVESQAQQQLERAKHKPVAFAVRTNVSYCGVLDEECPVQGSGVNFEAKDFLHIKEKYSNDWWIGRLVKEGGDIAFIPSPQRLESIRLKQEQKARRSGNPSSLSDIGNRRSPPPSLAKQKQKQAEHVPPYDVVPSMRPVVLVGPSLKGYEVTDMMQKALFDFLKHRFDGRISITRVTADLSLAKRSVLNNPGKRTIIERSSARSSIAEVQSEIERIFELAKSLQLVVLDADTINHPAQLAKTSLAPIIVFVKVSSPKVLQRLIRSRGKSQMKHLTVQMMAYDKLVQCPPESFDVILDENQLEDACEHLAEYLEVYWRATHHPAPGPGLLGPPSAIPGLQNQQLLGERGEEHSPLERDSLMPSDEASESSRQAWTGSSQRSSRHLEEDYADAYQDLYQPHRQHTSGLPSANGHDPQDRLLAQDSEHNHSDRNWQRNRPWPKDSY
T5 sequence (P54289 25-956, further chain): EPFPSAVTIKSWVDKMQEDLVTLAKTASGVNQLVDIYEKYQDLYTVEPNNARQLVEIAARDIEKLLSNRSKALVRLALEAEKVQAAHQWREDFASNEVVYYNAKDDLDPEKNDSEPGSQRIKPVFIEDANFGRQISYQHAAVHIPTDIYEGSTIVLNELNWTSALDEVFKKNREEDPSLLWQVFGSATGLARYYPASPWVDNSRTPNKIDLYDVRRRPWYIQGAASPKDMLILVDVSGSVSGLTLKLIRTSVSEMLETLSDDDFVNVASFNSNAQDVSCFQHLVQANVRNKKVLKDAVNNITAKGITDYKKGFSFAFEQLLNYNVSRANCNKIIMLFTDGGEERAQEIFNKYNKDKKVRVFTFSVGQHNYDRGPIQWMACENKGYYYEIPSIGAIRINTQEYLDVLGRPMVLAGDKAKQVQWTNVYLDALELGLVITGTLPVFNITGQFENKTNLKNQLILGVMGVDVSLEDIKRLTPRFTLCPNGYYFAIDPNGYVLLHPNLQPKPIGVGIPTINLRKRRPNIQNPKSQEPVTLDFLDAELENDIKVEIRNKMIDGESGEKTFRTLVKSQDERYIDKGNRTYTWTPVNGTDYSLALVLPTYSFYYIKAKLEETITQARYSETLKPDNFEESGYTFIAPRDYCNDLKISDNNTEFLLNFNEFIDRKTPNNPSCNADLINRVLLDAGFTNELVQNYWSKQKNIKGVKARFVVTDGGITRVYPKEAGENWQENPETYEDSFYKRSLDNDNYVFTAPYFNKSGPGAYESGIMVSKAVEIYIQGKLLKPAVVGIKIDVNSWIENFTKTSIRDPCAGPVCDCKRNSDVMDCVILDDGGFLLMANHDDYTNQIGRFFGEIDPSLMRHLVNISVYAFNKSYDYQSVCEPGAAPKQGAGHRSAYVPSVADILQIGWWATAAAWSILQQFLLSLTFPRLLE

## CCNCC(=O)Nc1c(C)ccc(O)c1C [SNX-483, 2-(ethylamino)-N-(3-hydroxy-2,6-dimethylphenyl) acetamide]
TTXi Na channels [1]
  inhibition at 400 µM: 20%
TTXi Na channels [2]
  Potency ratio 1/(IC50, TTXi/IC50, TTXs): 3.1
Kv1.2 K channel
  effect on K currents mediated by Kv1.2: no effect
Kv1.4 K channel
  effect on K currents mediated by Kv1.4: no effect
Kv1.3 K channel
  effect on K currents mediated by Kv1.3: no effect
Kv1.1 K channel
  effect on K currents mediated by Kv1.1: no effect
N-type Ca channel
  effect on N-type Ca channel-mediated Ca flux: no effect
L-type Ca channel
  effect on L-type Ca channel-mediated Ca flux: no effect
TTXs Na channels; 400 μM, large capsaicin-insensitive DRG clamped at −55 mV, 16 ms repolarizing step
  block of TTXs Na currents: does not block
TTXs Na channels; membrane potential −55 mV
  IC50: 222 ± 12 µM
